Experimental data: US6949552B2, “Remedial agent for anxiety neurosis or depression and piperazine derivative” (Taisho Pharmaceutical Co., Ltd., priority 2000, dated 2005)
Counter-ions that a name gives are not always drawn.

Key:
human MC4 receptor = molecular target: T1, human MC4 receptor (Homo sapiens, UniProt P32245); assay: MC4 receptor binding assay; settings: HEK-293 cell membranes expressing human MC4 receptor; [125I]Nle4-D-Phe7-α-MSH 0.2 nM; 25° C., 120 minutes
T1 construct: purchased Biolinks Co; host or cells: HEK-293 cell membranes
T1 sequence (P32245 whole entry): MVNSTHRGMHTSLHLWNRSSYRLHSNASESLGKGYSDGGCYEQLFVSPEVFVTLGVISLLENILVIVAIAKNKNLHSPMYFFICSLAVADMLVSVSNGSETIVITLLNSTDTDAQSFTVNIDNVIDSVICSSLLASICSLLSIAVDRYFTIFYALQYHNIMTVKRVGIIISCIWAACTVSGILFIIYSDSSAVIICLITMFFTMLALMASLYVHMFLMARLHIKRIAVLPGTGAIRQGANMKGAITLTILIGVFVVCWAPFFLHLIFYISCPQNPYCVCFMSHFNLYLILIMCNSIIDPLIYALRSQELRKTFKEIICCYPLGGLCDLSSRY
Protocol: Experiment 1 [MC4 Receptor Binding Assay]
MC4 receptor binding assay was carried out according to the method described in Pharmacology & Taxicology, 79, 161-165, 1996, HEK-293 cell membranes expressing the human MC4 receptor were purchased from Biolinks Co. The cell membranes were homogenized in a 50 mM Tris hydrochloric acid buffer solution (pH 7.4) containing 2 mM ethylenediamine tetraacetic acid, 10 mM calcium chloride and 100 μM phenylmethanesulfonyl-fluoride. The homogenate was centrifuged at 48,000×g for 20 minutes at 4° C. The precipitate obtained by centrifugation was again homogenized in the same buffer solution, and the homogenate was centrifuged at 48,000×g for 20 minutes at 4° C. This procedure was repeated twice. The precipitate was suspended in 50 mM Tris hydrochloric acid buffer solution (pH 7.4) containing 2 mM ethylenediamine tetraacetic acid, 10 mM calcium chloride, 100 μM phenylmethanesulfonylfluoride and 0.1% bovine serum albumin to adjust to a protein concentration of 100 μg/ml to give a crude membrane preparation which was used for the binding assay. […] The radioactivity on the filter paper was measured in a gamma-counter. […] The IC50 value was calculated from the inhibition curve in the concentration range of 10^−9-10^−5.

Male SD rats [1] = assay: Anti-anxiety action in Vogel test (Conflict test) in rats; type: in vivo, rat; settings: subcutaneous 1 mg/kg, 3 mg/kg or 10 mg/kg, 30 minutes before test; electric shock 1.0 mA; 3 minutes; FIG. 2
Protocol: Anti-anxiety action of Compound 4 in Table 1 in Vogel test (Conflict test) in rats was studied.
Male SD rats weighing 220 to 240 g (Charles River Japan Inc.) were used. Rats deprived of drinking water for 48 hours were divided into 10 animals for each group. To rats of group to be administered with the test compound was subcutaneously administered the test compound which was prepared by dissolving a predetermined amount of Compound 4 in Table 1 in saline for injection and adding 0.5 M aqueous sodium hydroxide solution to adjust to pH 4-5. Thirty minutes after the administration, rats were placed in a apparatus for the test, and drinking behaviors during the time of free access to drinking water for 3 minutes were measured. During the time of free access to drinking water, an electric shock (1.0 mA) was released, every 2 seconds of cumulative licking time to the drinking nozzle. The evaluation of this experiment was carried out using the number of the electric shocks.

Male SD rats [2] = assay: Anti-anxiety action in forced swim stress-induced anxiety model of rats (elevated plus-maze test); type: in vivo, rat; settings: subcutaneous 0.3 mg/kg, 1 mg/kg or 3 mg/kg, 30 minutes before 2-minute forced swim stress, 5-minute period, FIG. 3
Protocol: Anti-anxiety action of Compound 4 in Table 1 in forced swim stress-induced anxiety model of rats was studied.
Male SD rats weighing 220 to 240 g (Charles River Japan Inc.) were used. Rats were divided into 10 animals for each group. To rats of group to be administered with the test compound was subcutaneously administered the test compound which was prepared by dissolving a predetermined amount of the test drug in saline for injection and adding 0.5 M aqueous sodium hydroxide solution to adjust to pH 4-5. Thirty minutes after the administration, rats were exposed to a forced swim stress by placing in a black cylinder (20 cm internal diameter, 40 cm high) containing 25 cm deep of water maintained at 25° C. Duration of the forced swim stress was 2 minutes, and the anti-anxiety action was studied by the elevated plus-maze test, which was carried out 5 minutes after the forced swim stress.
The elevated plus-maze used for the test consisted of open arms (10 cm wide, 50 cm long) and close arms (10 cm wide, 50 cm long), and the open arms and the enclosed arms were covered with 1 cm-high and 40 cm-high transparent Plexiglas, respectively. The plus-maze was placed in 50 cm high from the floor. Luminosity at the center of the maze was 40 lux. […] The amount of time spent in open arms of the maze was recorded during a 5-minute period.

[3] = tested on: olfactory bulbectomized rats; assay: Anti-depressant action in olfactory bulbectomized rats (open field); type: in vivo, rat; settings: subcutaneous 1 mg/kg, 3 mg/kg or 10 mg/kg once a day for 2 weeks; test 24 hours after final administration; 3 minutes; FIG. 4
From the text: Anti-depressant action of Compound 4 in Table 1 in olfactory bulbectomized rats was studied. Male SD rats weighing 220 to 240 g (Charles River Japan Inc.) were used. Rats were anesthetized with sodium pentobarbital, the olfactory bulbs were removed by suction using a metal pipe linked to a water aspirator. Two weeks after the removal of the olfactory bulbs, rats were divided into 10 to 11 animals for each group. The rats of one group were subcutaneously administered once a day for 2 weeks with the test drug which was prepared by dissolving a predetermined amount of the test drug in saline for injection and adding 0.5 M aqueous sodium hydroxide solution to adjust to pH 4-5. Twenty four hours after the final administration, the rats were placed in the center of a circular open field apparatus (70 cm diameter 25 blocks), and the number of crossings among blocks during 3 minutes was counted.

[4] = tested on: recombinant human melanocortin receptors; assay: Antagonism in recombinant human melanocortin receptors
Male SD rats [5] = assay: Anxiogenic-like activity in Vogel test in rat (Proconflict test); type: in vivo; settings: intracerebroventricular administration, 30 minutes before test; electric shock 0.4 mA; 3 minutes; FIG. 1
Protocol: Anxiogenic-like activity inducing action by α-MSH and MTII in Vogel test in rat (Proconflict test) was studied.
α-MSH and MTII were purchased from Peninsula Laboratories. Male SD rats weighing 220 to 240 g (Charles River Japan Inc.) were used for animals. Rats deprived of drinking water for 48 hours were divided into 5 animals for each group. The test compound was administered to rats intracerbroventricularly at 10 μl/2 min. of the test compound which was prepared by dissolving a predetermined amount of α-MSH or MTII in saline containing 0.1% bovine serum albumin. To control rats which were not administered test compound, saline containing 0.1% bovine serum albumin was administered intracerebroventricularly at 10 μl/2 min. Thirty minutes after the administration, rats were placed in a apparatus for the test, and drinking behaviors during the time of free access to drinking water for 3 minutes were measured. During the time of free access to drinking water, an electric shock (0.4 mA) was released, every 2 seconds of cumulative licking time to the drinking nozzle. The evaluation of this experiment was carried out using the number of the electric shocks.

| melting point | Molecule | further results |
| --- | --- | --- |
| 171 to 173 °C | N=C(N)N1CCN(C(CN2CCN(CCCCc3cccc4ccccc34)CC2)c2ccc(F)cc2)CC1.O=C(O)/C=C\C(=O)O.O=C(O)/C=C\C(=O)O.O=C(O)/C=C\C(=O)O (stereo not shown) | – |
| 193 to 195 °C | CN1CCN(C(CN2CCN(CCCCc3cccc4ccccc34)CC2)c2ccc(F)cc2)CC1.Cl (stereo not shown) | – |
| 167 to 169 °C | CC(C)Oc1ccc2ccccc2c1CCCCN1CCN(CC(c2ccc(F)cc2)N2CCN(C(C)C)CC2)CC1.O=C(O)/C=C\C(=O)O.O=C(O)/C=C\C(=O)O.O=C(O)/C=C\C(=O)O (stereo not shown) | – |
| 233 to 235 °C | COc1ccc2ccccc2c1CCCCN1CCN(CC(c2ccc(F)cc2)C2CCN(C(C)C)CC2)CC1.Cl.Cl.Cl (stereo not shown) | – |
| 156 to 160 °C | CN1CCC(O)(C(CN2CCN(CCCCc3cccc4ccccc34)CC2)c2ccc(F)cc2)CC1.Cl.Cl.Cl (stereo not shown) | – |
| 193 to 195 °C | CN1CCN(C(CN2CCN(CCCCc3cccc4ccccc34)CC2)c2ccc(F)cc2)CC1.Cl.Cl.Cl.Cl (stereo not shown) [Compound 4, 1-[2-(4-fluorophenyl)-2-(4-methylpiperazino)ethyl]-4-(4-naphthalen-1-yl-butyl)piperazine tetrahydrochloride] | IC50 (human MC4 receptor): 164 nM; decreased number of times of drinking water (number of the electric shocks) caused by electric shock (Male SD rats [1]): significantly, dose-dependently antagonized; decreased amount of time spent in open arms after forced swim stress (Male SD rats [2]): significantly, dose-dependently antagonized; increased number of crossings among blocks in the open field [3]: significantly, dose-dependently antagonized; action in recombinant human melanocortin receptors (selectivity) [4]: high selective antagonist |

Further lines, the molecule ahead of its results:

| Molecule | melting point | further results |
| --- | --- | --- |
| CC(C)N1CCN(C(CN2CCN(CCCCc3cccc4ccccc34)CC2)c2ccc(F)cc2)CC1.O=C(O)/C=C\C(=O)O.O=C(O)/C=C\C(=O)O.O=C(O)/C=C\C(=O)O (stereo not shown) | 127 to 129 °C | – |
| COc1ccc(C(CN2CCN(CCCCc3cccc4ccccc34)CC2)N2CCN(C)CC2)cc1.O=C(O)/C=C\C(=O)O.O=C(O)/C=C\C(=O)O.O=C(O)/C=C\C(=O)O (stereo not shown) | 138 to 140 °C | – |
| CN1CCN(C(CN2CCN(CCCCc3cccc4ccccc34)CC2)c2ccc(N)cc2)CC1.O=C(O)/C=C\C(=O)O.O=C(O)/C=C\C(=O)O.O=C(O)/C=C\C(=O)O (stereo not shown) | 152 to 154 °C | – |
| CN1CCN(C(CN2CCN(CCCCc3noc4cc(F)ccc34)CC2)c2ccc(F)cc2)CC1.O=C(O)/C=C\C(=O)O.O=C(O)/C=C\C(=O)O.O=C(O)/C=C\C(=O)O (stereo not shown) | 170 to 173 °C | – |
| COc1ccc2ccccc2c1CCCCN1CCN(CC(c2ccc(F)cc2)N2CCN(C(C)C)CC2)CC1.Cl.Cl.Cl.Cl (stereo not shown) | 183 to 185 °C | – |
| CN1CCN(C(CN2CCN(CCCCc3cccc4ccccc34)CC2)c2ccc(F)cc2)CC1 (single isomer, unassigned; (-)) [Compound 6, (−)-1-[2-(4-Fluorophenyl)-2-(4-methylpiperazino)ethyl]-4-[4-naphthalen-1-yl-butyl]piperazine hydrochloride] | – | IC50 (human MC4 receptor): 90 nM |
| MTII | – | number of times of drinking water (number of the electric shocks) in comparison with the control group (Male SD rats [5]): dose-dependently, significantly decreased |
| α-MSH (Ac-SYSMEHFRWGKPV-NH2; ends and bridges not checked; UniProt P01189 138-150, looked up) [melanocyte stimulating hormone (melanocortin produced from POMC), purchased from Peninsula Laboratories] | – | number of times of drinking water (number of the electric shocks) in comparison with the control group (Male SD rats [5]): dose-dependently, significantly decreased |
